Where two headings read alike, the source gives them in different places.
Target: T1, arginase (RocF) (Helicobacter pylori, UniProt O25949)
T1 construct: gene HP_1399; RocF with C-terminal His6 tag, apo form, expressed in E. coli BL21 (DE3)
Assay: colorimetric arginase assay (ninhydrin detection of L-ornithine), purified apo-RocF heat-activated with Co2+, pH […]
Format: biochemical

T1 sequence (O25949 entry or part of it): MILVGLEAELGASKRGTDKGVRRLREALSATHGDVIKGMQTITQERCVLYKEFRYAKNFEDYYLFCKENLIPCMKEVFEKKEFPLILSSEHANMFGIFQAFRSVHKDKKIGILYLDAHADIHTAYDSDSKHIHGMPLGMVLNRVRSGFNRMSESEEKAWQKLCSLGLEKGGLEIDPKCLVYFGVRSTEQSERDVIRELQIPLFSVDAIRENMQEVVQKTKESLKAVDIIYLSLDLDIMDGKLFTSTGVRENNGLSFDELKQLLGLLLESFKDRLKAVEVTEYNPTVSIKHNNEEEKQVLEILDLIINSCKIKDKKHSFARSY

N[C@@H](CSCCB(O)O)C(=O)O [BEC, S-(2-boronoethyl)-L-Cysteine]
IC50: 1000 µM

N=C(NO)NCC[C@H](N)C(=O)O [nor-NOHA]
IC50 (read-out: IC50): 500 µM

Source: article PMC3197605, “Expression, Purification and Characterization of Arginase from Helicobacter pylori in Its Apo Form” (PLoS ONE, 2011)
